Assay results as given in PubChem BioAssay (NCI).
Where “and” joins values, the source holds several entries; their conditions need not be identical. Equal values may be shown once.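 How tested: cells in 96-well plates exposed to compound for 48 hours at five concentrations. The concentration for 50% growth inhibition is given as GI50. TGI marks complete inhibition of growth.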

What was measured:
Assay in all cases: NCI tumour cell line growth inhibition, 48 h
SR leukemia = system: SR leukemia
HL-60(TB) leukemia = system: HL-60(TB) leukemia
SW-620 colon = system: SW-620 colon
CCRF-CEM leukemia = system: CCRF-CEM leukemia
A549 NSCLC = system: A549 NSCLC
OVCAR-5 ovarian = system: OVCAR-5 ovarian
IGROV1 ovarian = system: IGROV1 ovarian
SF-539 CNS = system: SF-539 CNS
T-47D breast = system: T-47D breast
HOP-92 NSCLC = system: HOP-92 NSCLC

Row | Structure (SMILES) | TGI (SR leukemia) [µM] | TGI (HL-60(TB) leukemia) | TGI (SW-620 colon) | TGI (CCRF-CEM leukemia) | TGI (A549 NSCLC) | TGI (OVCAR-5 ovarian) | TGI (IGROV1 ovarian) | TGI (SF-539 CNS) | TGI (T-47D breast) [µM] | TGI (HOP-92 NSCLC) | GI50 (CCRF-CEM leukemia) | GI50 (OVCAR-5 ovarian) [µM] | GI50 (SR leukemia) [µM] | GI50 (HL-60(TB) leukemia) [µM] | GI50 (SW-620 colon) [µM] | GI50 (A549 NSCLC) [µM] | GI50 (IGROV1 ovarian) [µM] | GI50 (SF-539 CNS) [µM] | GI50 (T-47D breast) [µM] | GI50 (HOP-92 NSCLC) [µM]
1 | CCCCCCNC(=O)c1cnc(Cl)cn1 | 16.6 | 47.8 µM | 28.4 µM | > 100 µM | 42.3 µM | 32.5 µM | 22.8 µM | 35.4 µM | > 100 | > 100 µM | – | – | – | – | – | – | – | – | – | –
2 | NC(N)=N/N=C/c1c(-c2ccccc2)nc2n1ccc1nc(-c3ccccc3)c(/C=N/N=C(N)N)n12 | – | > 100 µM | > 100 µM | > 100 µM | > 100 µM | > 100 µM | 92.7 µM | > 100 µM | > 100 | > 100 µM | – | – | – | – | – | – | – | – | – | –
3 | CN(C)CCCNc1ccc2ncn3c4ccccc4c(=O)c1c23 | 17.7 | 21.2 µM | 26.5 µM | 23.4 µM | – | 38.5 µM | 33 µM | 90.8 µM | – | 59.5 µM | – | – | – | – | – | – | – | – | – | –
4 | CC12CCC(C(=O)OC1=O)C(C)(C)O2 (centres undefined) | – | – | > 100 µM | > 100 µM | > 100 µM | > 100 µM | > 100 µM | > 100 µM | > 100 | > 100 µM | – | – | – | – | – | – | – | – | – | –
5 | O=NC1C(Cl)C2CC1C1C(Br)C(Br)CC21 (centres undefined) | > 100 | > 100 µM | > 100 µM | > 100 µM | > 100 µM | > 100 µM | > 100 µM | > 100 µM | > 100 | > 100 µM | – | – | – | – | – | – | – | – | – | –
6 | CC(=O)C(O)N1C(=O)C=CC1=O (centres undefined) | – | – | – | – | 16.4 µM and 35.9 µM | – | – | – | > 25 | – | > 25 µM and 2.74 µM | 10500 | – | – | – | – | – | – | – | –
7 | C[C@@H]1CC[C@H]2C(COCCOCC3=C(C(F)(F)F)O[C@@H]4O[C@@]5(C)CC[C@H]6[C@H](C)CC[C@@H]3[C@@]46OO5)=C(C(F)(F)F)O[C@@H]3O[C@@]4(C)CC[C@@H]1[C@]32OO4 | > 100 | – | > 100 µM | > 100 µM | > 100 µM | > 20 µM | > 100 µM | > 69.8 µM | > 94.6 | > 100 µM | < 0.0209 µM | > 4.64 | 0.0116 | < 0.0213 | 0.0293 | < 0.0332 | > 21.1 | 0.0264 | < 0.014 | 0.0679
8 | CN(C)c1ccc(/C=N\NC(=O)CSCC(=O)N/N=C/c2ccc(N(C)C)cc2)cc1 | > 100 | > 100 µM | > 100 µM | > 100 µM | > 100 µM | > 100 µM | > 100 µM | > 100 µM | 88.6 | > 100 µM | – | – | – | – | – | – | – | – | – | –
9 | COc1ccc([C@@H]2ON(C)[C@H]3CN(C)C(=O)[C@@H]23)cc1 | > 100 | > 100 µM | > 100 µM | > 100 µM | > 100 µM | > 100 µM | > 100 µM | – | > 100 | > 100 µM | – | – | – | – | – | – | – | – | – | –
10 | Cc1ccccc1N=Nc1ccc(N=Nc2c(O)ccc3ccccc23)c(C)c1 | – | – | > 100 µM | – | > 100 µM | > 100 µM | > 100 µM | – | > 100 | > 100 µM | – | – | – | – | – | – | – | – | – | –
11 | C/C=C/[P+](c1ccccc1)(c1ccccc1)c1ccccc1 | 2.58 | 2.78 µM | 24.3 µM | > 42.4 µM | > 100 µM | 33.2 µM | 18.1 µM | 16.7 µM | 1.43 | 6.81 µM | – | – | – | – | – | – | – | – | – | –
12 | CC1C(O)C2(Oc3cc4c(c5c3[C@@H](CC5O)[C@H]2C)CCC2Cc3nc5c(nc3C[C@@]42C)CC2CCC3C4=C[C@H]6O[C@@]7(O[C@@](C)(CO)C[C@@H]7O)C(C)[C@@]6(O)[C@]4(C)[C@@H](O)CC3[C@]2(C)C5)OC1(C)C (some centres undefined) | – | 0.177 µM | 1.05 µM | 0.194 µM | 0.841 µM | 1.32 µM | 0.894 µM | 0.302 µM | – | > 3.67 µM | – | – | – | – | – | – | – | – | – | –
13 | COc1ccc(N2C(=O)C3c4[nH]c5c(C)cccc5c4C4CCC(C(C)(C)C)CC4C3C2=O)cc1 (centres undefined) | > 10 | > 10 µM | > 10 µM | > 10 µM | > 10 µM | > 10 µM | > 10 µM | > 10 µM | > 10 | – | – | – | – | – | – | – | – | – | – | –
14 | CC1=C2C(=O)c3ccccc3C(=O)[C@H]2[C@H]2CCO[C@H]2O1 | > 100 | 61.1 µM | 53.1 µM | 69.8 µM | > 100 µM | 49.2 µM | 31.1 µM | 43.9 µM | > 100 | 42.3 µM | – | – | – | – | – | – | – | – | – | –
15 | Cc1ccc(S(=O)(=O)NCCSCCNS(=O)(=O)c2ccc(C)cc2)cc1 | > 100 | – | > 100 µM | > 100 µM | > 100 µM | – | – | – | > 100 | > 100 µM | – | – | – | – | – | – | – | – | – | –
16 | O=c1ccc2cc(O)c(O)cc2o1 | > 100 | > 100 µM | > 100 µM | > 100 µM | > 100 µM | > 100 µM | > 100 µM | > 100 µM | > 100 | > 100 µM | – | – | – | – | – | – | – | – | – | –
17 | COc1ccc(-c2c3c(nc4nc(SCCc5ccccc5)nc(N)c24)CCCC3)cc1OC | > 100 | > 100 µM | > 100 µM | > 100 µM | > 100 µM | > 100 µM | > 100 µM | > 100 µM | > 100 | – | – | – | – | – | – | – | – | – | – | –
18 | Cc1c2cc[n+](CCN3CCCCC3)cc2c(C)c2c1[nH]c1ccc(O)cc12 | 3.49 | 26.5 µM and > 40.4 µM | 55.4 µM and > 71 µM | 17.4 µM and > 100 µM | 34.7 µM and 27.8 µM | 62.4 µM and > 77.3 µM | 38.1 µM and 30.4 µM | 34.5 µM and > 58.8 µM | 12.1 | 46.6 µM and 42 µM | 1.8 µM | 25.2 | – | 3.67 | 6.26 | – | 4.43 | 7.38 | – | 4.34
19 | CCCCCCCSc1nc2c(C(=O)OCC)ncn2c2ccccc12 | > 100 | > 100 µM | > 100 µM | > 100 µM | – | > 100 µM | > 100 µM | – | – | > 100 µM | – | – | – | – | – | – | – | – | – | –
20 | CN(C)CCNc1nc(-c2ccc3ccccc3c2)nc2nc[nH]c12 | 24.7 | > 100 µM | 24.6 µM | 52.9 µM | 26.3 µM | 26 µM | 15.4 µM | – | 29.7 | – | – | – | – | – | – | – | – | – | – | –
21 | CN1CCCCC1CCN1CCCCC1 (centres undefined) | – | > 100 µM | > 100 µM | – | > 100 µM | > 100 µM | > 100 µM | – | > 100 | > 100 µM | – | – | – | – | – | – | – | – | – | –
